Measured values: patent US20170008888A1 (KYORIN PHARMACEUTICAL CO., LTD., priority 2014, published 2017)
Where two headings read alike, the source gives them in different places.

What was measured:
Assay type in all cases: cell-based
[1] = system: immortalized normal human bronchial epithelial BEAS-2B cells; test: IL-17A- or IL-17F-mediated cytokine response by BEAS-2B cells; settings: 48 h
Method: The virally immortalized, normal human bronchial epithelial cell line BEAS-2B was purchased from ATCC (Manassas, Va.). Primary bronchial epithelial cells isolated from a patient diagnosed with asthma were obtained from Lonza (Allendale, N.J.). Both cells were maintained in complete Bronchial Epithelial Cell Growth Medium (BEGM) (Lonza). Cells were seeded at 1e5 cells/ml and incubated at 37° C. in a humidified atmosphere at 5% CO2 overnight to adhere. Cells were pre-treated with test compounds (10 μM down by ⅕ in a 3- or 4-point serial dilution series) for 1 h at 37° C. in a humidified atmosphere at 5% CO2. DMSO at a final concentration of 0.1% served as the non-inhibited control. Budesonide (Selleck Chemicals, Houston, Tex.), a clinically approved glucocorticoid steroid for the treatment of asthma, was tested as a positive control at 0.25 μM. Cells were stimulated with 50 ng/ml of either human recombinant IL-17A or IL-17F (eBioscience, San Diego, Calif.), for 48 h. Supernatant was then collected and analyzed for cytokine concentrations using the Bio-Plex Pro Human Cytokine 17-Plex Panel (Bio-Rad Laboratories, Hercules, Calif.) according to the manufacturer's instructions. Magnetic beads were measured on the Bio-Plex MAGPIX multiplex reader instrument using the accompanying xPONENT 4.2 acquisition software (Bio-Rad Laboratories). Data were analyzed via the Bio-Plex Manager software v6.1 (Bio-Rad Laboratories). For the primary asthmatic bronchial epithelial cells, five (+IL-17F) to thirteen (+IL-17A) cytokines were in range of detection under the conditions used. […] Select cytokines were analyzed for comparison using the BEAS-2B cell line.

[2] = system: human CD4+ T cells; test: Cytokines produced by human CD4+ T cells stimulated with PMA/ionomycin; settings: 10 μM compound, PMA/ionomycin 20 h
Description: Freshly isolated human peripheral blood mononuclear cells (PBMCs) were purchased from Astarte Biologics (Redmond, Wash.). CD4+ T cells were isolated from the PBMCs using the EasySep Negative Selection Human CD4+ T Cell Enrichment Kit (Stemcell Technologies, Vancouver, Canada) according to manufacturer's instructions briefly as follows: Unwanted cells were specifically labeled with a cocktail of bispecific tetrameric antibody complexes (TAC) against dextran and cell surface antigens (CD8, CD14, CD16, CD19, CD20, CD36, CD56, CD66b, CD123, TCRγ/δ, glycophorin A). Labeled cells were then targeted for removal by incubation with dextran-coated magnetic particles, leaving the desired CD4+ T cells.
Human CD4+ T cells, isolated as shown in protocol A, were seeded at 2e6 cells/ml in RPMI 1640 containing 10% (v/v) charcoal-dextran treated, heat inactivated FBS (Omega Scientific, Tarzana, Calif.), 0.05 mM 2-Mercaptoethanol (Sigma-Aldrich, St. Louis, Mo.), and 1×Pen/Strep Amphotericin B (Lonza, Allendale, N.J.). Cells were pre-treated with test compounds (10 μM) for 1 h at 37° C. in a humidified atmosphere at 5% CO2. Cells were then stimulated with 50 ng/ml phorbol 12-myristate 13-acetate (PMA)(Sigma-Aldrich, St. Louis, Mo.)+1 μg/ml ionomycin (Life Technologies, Grand Island, N.Y.) for 20 h at 37° C. in a humidified atmosphere at 5% CO2. Supernatant was collected and analyzed using Bio-Plex Pro Human Th17 Cytokine 15-Plex Panel (Bio-Rad Laboratories, Hercules, Calif.) as per manufacturer's protocols. Magnetic beads were read on the Bio-Plex MAGPIX multiplex reader instrument using the accompanying xPONENT 4.2 acquisition software (Bio-Rad Laboratories, Hercules, Calif.). Data were analyzed via the Bio-Plex Manager software v6.1 (Bio-Rad Laboratories).
IL-1β, IL-2, IL-7, and IL-12 (p70) were below the limit of detection under conditions used. The concentrations of the observed analytes of the DMSO control, from top to bottom as listed, are as follows: 31, 585, 24178, 22, 48, 91, 728, 94, 156, 705, 15, 1045, 5501 pg/ml.

[3] = system: diseased primary human lung fibroblasts; test: Cytokine response by primary diseased human lung fibroblasts stimulated with IL-17A or IL-17F; settings: Fibroblast, 48 h
Method: Primary lung fibroblasts isolated from a patient diagnosed with asthma were obtained from Lonza (Allendale, N.J.) and maintained in FGM-2 fibroblast growth medium (Lonza). Cells were seeded at 1e5 cells/ml and incubated at 37° C. in a humidified atmosphere at 5% CO2 overnight to adhere. Cells were pre-treated with test compounds (10 μM down by ⅕ in a 3- or 4-point serial dilution series) for 1 h at 37° C. in a humidified atmosphere at 5% CO2. DMSO at a final concentration of 0.1% served as the non-inhibited control. Cells were stimulated with 50 ng/ml of either human recombinant IL-17A or IL-17F (eBioscience, San Diego, Calif.), for 48 h. Supernatant was then collected and analyzed for cytokine concentrations using the Bio-Plex Pro Human Cytokine 17-Plex Panel (Bio-Rad Laboratories, Hercules, Calif.) according to the manufacturer's instructions. Magnetic beads were measured on the Bio-Plex MAGPIX multiplex reader instrument using the accompanying xPONENT 4.2 acquisition software (Bio-Rad Laboratories). Data were analyzed via the Bio-Plex Manager software v6.1 (Bio-Rad Laboratories). Only four (+IL-17F) to six (+IL-17A) cytokines were in range of detection under the conditions used.
G-CSF concentrations were below the limit of detection when cells were stimulated with IL-17F.

[4] = +50 ng/ml IL-17A, read-out: EC50 values (μM), IL-6
[5] = +50 ng/ml IL-17A, read-out: EC50 values (μM), IL-8
[6] = +50 ng/ml IL-17F, read-out: EC50 values (μM), IL-6
[7] = +50 ng/ml IL-17F, read-out: EC50 values (μM), IL-8
[8] = read-out: Percent inhibition of G-CSF (relative to DMSO control)
[9] = read-out: Percent inhibition of GM-CSF (relative to DMSO control)
[10] = read-out: Percent inhibition of IFNγ (relative to DMSO control)
[11] = read-out: Percent inhibition of IL-4 (relative to DMSO control)
[12] = read-out: Percent inhibition of IL-5 (relative to DMSO control)
[13] = read-out: Percent inhibition of IL-6 (relative to DMSO control)
[14] = read-out: Percent inhibition of IL-8 (relative to DMSO control)
[15] = read-out: Percent inhibition of IL-10 (relative to DMSO control)
[16] = read-out: Percent inhibition of IL-13 (relative to DMSO control)
[17] = read-out: Percent inhibition of IL-17A (relative to DMSO control)
[18] = read-out: Percent inhibition of MCP-1 (relative to DMSO control)
[19] = read-out: Percent inhibition of MIP-1β (relative to DMSO control)
[20] = read-out: Percent inhibition of TNFα (relative to DMSO control)
[21] = +50 ng/ml IL-17A, read-out: EC50 values (μM), G-CSF
[22] = +50 ng/ml IL-17A, read-out: EC50 values (μM), MCP-1
[23] = +50 ng/ml IL-17F, read-out: EC50 values (μM), MCP-1

CCOc1cc(C(=O)N2CCC(N3CCCC3)CC2)ccc1Nc1cc2c(cn1)N(C)C(=O)c1ccccc1N2C [Compound 46, 3-(2-Ethoxy-4-(4-(pyrrolidin-1-yl)piperidine-1-carbonyl)phenylamino)-5,11-dimethyl-5H-benzo[e]pyrido[3,4-b][1,4]diazepin-10(11H)-one]
EC50 [1, 4]: 0.51 µM
EC50 [1, 5]: 0.4 µM
EC50 [1, 6]: 0.38 µM
EC50 [1, 7]: 0.32 µM
inhibition at 10 µM [2, 8]: 26.4%
inhibition at 10 µM [2, 9]: 96.7%
inhibition at 10 µM [2, 10]: 18.3%
inhibition at 10 µM [2, 11]: 11.7%
inhibition at 10 µM [2, 12]: 49.1%
inhibition at 10 µM [2, 13]: 89.3%
inhibition at 10 µM [2, 14]: -109%
inhibition at 10 µM [2, 15]: 97.3%
inhibition at 10 µM [2, 16]: 32.1%
inhibition at 10 µM [2, 17]: 52.2%
inhibition at 10 µM [2, 18]: 67.6%
inhibition at 10 µM [2, 19]: 63.9%
inhibition at 10 µM [2, 20]: 64%

CCOc1cc(C(=O)NCC2CC2)ccc1Nc1cc2c(cn1)N(C)C(=O)c1ccccc1N2C [Compound 57]
inhibition at 10 µM [2, 8]: 34.5%
inhibition at 10 µM [2, 9]: 95.9%
inhibition at 10 µM [2, 10]: 50.9%
inhibition at 10 µM [2, 11]: 31.4%
inhibition at 10 µM [2, 12]: 42.8%
inhibition at 10 µM [2, 13]: 91.1%
inhibition at 10 µM [2, 14]: -44.1%
inhibition at 10 µM [2, 15]: 97.7%
inhibition at 10 µM [2, 16]: 55.6%
inhibition at 10 µM [2, 17]: 78.8%
inhibition at 10 µM [2, 18]: 70.6%
inhibition at 10 µM [2, 19]: 56.2%
inhibition at 10 µM [2, 20]: 58.3%

CCOc1cc(C(=O)N2CCC(N3CCN(C)CC3)CC2)ccc1Nc1cc2c(cn1)N(C)C(=O)c1ccccc1N2C [Compound 61]
EC50 [1, 4]: 0.68 µM
EC50 [1, 5]: 0.42 µM
EC50 [1, 6]: 0.42 µM
EC50 [1, 7]: 0.51 µM
inhibition at 10 µM [2, 8]: 25.3%
inhibition at 10 µM [2, 9]: 96.6%
inhibition at 10 µM [2, 10]: -11.8%
inhibition at 10 µM [2, 11]: -7.7%
inhibition at 10 µM [2, 12]: 21.9%
inhibition at 10 µM [2, 13]: 85.8%
inhibition at 10 µM [2, 15]: 97.6%
inhibition at 10 µM [2, 16]: 0.6%
inhibition at 10 µM [2, 17]: 45.4%
inhibition at 10 µM [2, 18]: 65.5%
inhibition at 10 µM [2, 19]: 59.2%
inhibition at 10 µM [2, 20]: 50.9%
EC50 [3, 21]: 1.99 µM
EC50 [3, 4]: 6.98 µM
EC50 [3, 5]: 0.54 µM
EC50 [3, 22]: 1.33 µM
EC50 [3, 6]: 4.45 µM
EC50 [3, 7]: 0.45 µM
EC50 [3, 23]: 1.57 µM

CCOc1cc(C(=O)N2CCNCC2)ccc1Nc1cc2c(cn1)N(C)C(=O)c1ccccc1N2C [Compound 62]
inhibition at 10 µM [2, 8]: 27.6%
inhibition at 10 µM [2, 9]: 95.4%
inhibition at 10 µM [2, 10]: 15.6%
inhibition at 10 µM [2, 11]: -4.8%
inhibition at 10 µM [2, 12]: 29.7%
inhibition at 10 µM [2, 13]: 86.9%
inhibition at 10 µM [2, 14]: -179%
inhibition at 10 µM [2, 15]: 97.2%
inhibition at 10 µM [2, 16]: 19.8%
inhibition at 10 µM [2, 17]: 49.7%
inhibition at 10 µM [2, 18]: 66.1%
inhibition at 10 µM [2, 19]: 66.9%
inhibition at 10 µM [2, 20]: 70.1%

CCOc1cc(C(=O)N2CCC(N3CCN(C)CC3)CC2)ccc1Nc1cc2c(cn1)N(C)C(=O)c1occc1N2C [Compound 65]
inhibition at 10 µM [2, 8]: 36.1%
inhibition at 10 µM [2, 9]: 89.5%
inhibition at 10 µM [2, 10]: 12.3%
inhibition at 10 µM [2, 11]: 10.1%
inhibition at 10 µM [2, 12]: 47.7%
inhibition at 10 µM [2, 13]: 87.7%
inhibition at 10 µM [2, 15]: 98%
inhibition at 10 µM [2, 16]: 18.3%
inhibition at 10 µM [2, 17]: 39.3%
inhibition at 10 µM [2, 18]: 64.2%
inhibition at 10 µM [2, 19]: 55.8%
inhibition at 10 µM [2, 20]: 56.9%
EC50 [3, 21]: 3.5 µM
EC50 [3, 4]: 5.69 µM
EC50 [3, 5]: 0.48 µM
EC50 [3, 22]: 1.31 µM
EC50 [3, 6]: 2.49 µM
EC50 [3, 7]: 0.52 µM
EC50 [3, 23]: 1.85 µM

CCOc1cc(C(=O)N2CC[C@@H](N(C)C)C2)ccc1Nc1cc2c(cn1)N(C)C(=O)c1ccccc1N2C [Compound 115]
EC50 [1, 4]: 0.21 µM
EC50 [1, 5]: 0.42 µM
EC50 [1, 6]: 0.14 µM
EC50 [1, 7]: 0.13 µM
EC50 [3, 21]: 0.86 µM
EC50 [3, 4]: 1.16 µM
EC50 [3, 5]: < 0.08 µM
EC50 [3, 22]: 0.35 µM
EC50 [3, 6]: 0.95 µM
EC50 [3, 7]: < 0.08 µM
EC50 [3, 23]: 0.36 µM
